Publication PMC7073110, “Molecular Rescue of Dyrk1A Overexpression Alterations in Mice with Fontup® Dietary Supplement: Role of Green Tea Catechins” (International Journal of Molecular Sciences, 2020)
Read-outs that look alike come from different tables or passages of the source. Each block holds one compound with its values, some of them ahead of it.

Columns and labels:
[1] = biological target: T1, DYRK1A-ΔC (truncated DYRK1A, catalytic domain residues 1–502) (Rattus norvegicus, UniProt Q63470); experiment: DYRK1A-ΔC inhibition assay, HPLC/UFLC-based with fluorescent peptide substrate; format: biochemical; conditions: for remaining activity at 0.1 µM: read-out: DYRK1A-ΔC Remaining Activity at 0.1 µM; for remaining activity at 1 µM: read-out: DYRK1A-ΔC Remaining Activity at 1 µM; for remaining activity at 100 µM: read-out: DYRK1A-ΔC Remaining Activity at 100 µM; for Effect on DYRK1A-ΔC activity (in words): 0.1–100 µM
T1 construct: catalytic domain (residues 1–502) of rat DYRK1A; 6xHis; made in house; host or cells: Escherichia coli BL21
Procedure: W. Becker (Aachen University, Aachen, Germany) and subcloned into pET28a plasmid to produce recombinant 6xHis-tagged DYRK1A catalytic domain (DYRK1A-ΔC). The pET28-Dyrk1a-ΔC plasmid was transformed into Escherichia coli cells (BL21) for production and purification of the enzyme. Briefly, transformed bacteria cells were grown at 37 °C for 4 h until OD was between 0.6–0.7 and further grown at 37 °C for 5 h in the presence of 0.5 mM isopropyl β-D-1-thiogalactopyranoside (IPTG). Cells were harvested by centrifugation at 6000× g, 4 °C for 10 min and the pellet was washed with PBS. The pellet was re-suspended in PBS supplemented with protease inhibitors, 1 mg/mL lysozyme and 0.1% Triton X-100. After 30 min incubation at 4 °C, the lysate was subjected to sonication on ice (6 min with pulse on 30 s/ off 30 s) and pelleted at 10,000× g, 4 °C for 30 min. The supernatant was incubated with His-select nickel resin (Sigma, Saint-Quentin Fallavier, France) for 2 h at 4 °C under agitation, and the resin was transferred into a column and washed with Tris-HCl 20 mM, pH 8, with 5 mM imidazole. Proteins were eluted in Tris-HCl 20 mM, pH 8, 300 mM imidazole, and dialyzed overnight against Tris-HCl 50 mM, pH 8, dithiothreitol (DTT) 10 mM, MgCl2 5 mM. Purified proteins were quantified with Bradford’s reagent (BioRad). Purity was assessed by sodium dodecyl sulfate-polyacrylamide gel electrophoresis (SDS-PAGE). Proteins were kept at −80 °C until use.
The fluorescent peptide substrate was derived from the sequence of the human transcription factor FKHR that is a physiological substrate of DYRK1A [46]. […] The enzymatic reaction was started by addition of the substrate and the mixture was incubated at 37 °C for 30 min. […] The peptides were monitored by fluorimetry (excitation at 485 nm, emission at 530 nm) and quantified by integration of the peak absorbance area. A calibration curve established with different known concentrations of peptides was used for quantification. For inhibition studies with green tea catechins, the compounds, dissolved in water, were added at four different concentrations (up to 100 µM) to the well prior to addition of ATP (1 mM final concentration). Determination of the mode of inhibition (competitive/non-competitive) of the compounds was obtained by carrying assays with different concentrations of ATP (200, 400 and 800 µM).

[2] = biological target: T2, DYRK1A native human protein (Homo sapiens, UniProt Q13627); experiment: DYRK1A inhibition assay, HPLC-based (native protein PV3785); format: biochemical
T2 construct: purchased Thermo Fisher Scientific PV3785

[3] = EGCG levels in plasma and brain after oral gavage of FontUp; format: in vivo, mice; conditions: for concentration at 4 h / Kp at 4 h: male, mouse, two days; for Kp at 4 h: brain/plasma, read-out: Kp (brain concentration/plasma concentration)
Procedure: FontUp® was prepared daily as described above and strongly mixed at room temperature. Male mice received an oral gavage of three different doses (25, 50 and 75 mg/Kg), in the morning and in the evening for two or eight days. The last dose was administered 4 h before sacrifice.
Blood samples were obtained by retro-orbital sinus sampling with heparinized capillaries, collected into tubes containing a 1/10 volume of 3.8% sodium citrate, and immediately placed on ice. Plasma was isolated by centrifugation at 2500× g for 15 min at 4 °C. 80 µL of plasma samples were mixed with 20 µL 0.2 M NaH2PO4 solution containing 20% ascorbic acid and 0.1% EDTA, pH 3.6 for polyphenol assays. Plasma samples were store at −80 °C until use. Brains and hearts were harvested, snap-frozen in liquid nitrogen, and stored at −80 °C until use. Plasma total hcy, defined as the total concentration of hcy after quantitative reductive cleavage of all disulfide bonds, and total GSH were assayed using a fluorometric HPLC method previously described. ALT concentrations were determined using the Alanine Aminotransferase Activity Assay Kit (Sigma-Aldrich, Saint-Quentin Fallavier, France), based on the pyruvate generated. Plasma galectin-3 (Abcam ELISA kit, Paris, France), and fibronectin (Abcam ELISA kit) were assessed using sandwich ELISA. After removal of unbound conjugates, bound enzyme activity was assessed by use of a chromogenic substrate for measurement at 450 nm by a microplate reader (Flex Station 3, Molecular Devices, Ltd., Wokhingham, UK).
Brains were homogenized with 1.5 mm diameter beads for 2 min at 25 frequencies/second using a tissue lyser II (Qiagen, Hilden, Germany). The homogenates were centrifuged at 13,000 rpm for 10 min at 4 °C. The supernatants were transferred in a clear tube and mixed with the preservative solution as mentioned at one-tenth of its volume.
The catechin contents was analyzed as previously reported. Two hundred microliters of plasma or brain samples homogenates were thawed at room temperature and 50 µL of 0.4 M sodium phosphate buffer (pH 7.4) were added. The sample was mixed with 10 µL of beta-glucuronidase (250 units) and 10 µL of sulfatase (10 units) and then incubated at 37 °C for 45 min. Then the plasma or brain samples were partitioned with ethyl acetate in the ratio of 1:1 (v/v). The liquid-liquid extraction was carried out three times for 1 min by shaking on vortex and the organic phases (upper phases) were pooled. The combined ethyl acetate phases were evaporated under vacuum to dryness. The dry residue was re-dissolved in 50% methanol in water and was kept at −80 °C before HPLC analysis. HPLC was performed with a LC Prominence (Shimadzu, Kyoto, Japan) coupled with a Coulochem III electrode array detector (ESA Inc., Bedford, MA, USA) using a reverse- Interchrom C18 column (3 µm, 150 × 2.1 mm) eluted with the eluent described below at a flow rate of 0.35 mL/min at 45 °C. HPLC analysis was performed using a linear gradient system with mobile phase A (20 mM NaH2PO4) and mobile phase B (acetonitrile). Linear gradient elution was performed as follows: 100% mobile phase A for 10 min; 55% mobile phase A for 30 min and return to 100% mobile phase A for 15 min. The eluent was monitored using the Coulochem-III electrochemical detector (5011 analytical cell) with potential settings at 600 mV (E1) and 700 mV (E2). Quantification was carried out using the external standard method. Catechin quantification was performed after data acquisition using an LC Solution (Shimadzu).

DYRK1A = conditions: cited from earlier work
[4] = 0.1 µM compound, 1 mM ATP, 60 µM peptide, normalized to no inhibitor
[5] = 1 µM compound, 1 mM ATP, 60 µM peptide, normalized to no inhibitor
[6] = 10 µM compound, 1 mM ATP, 60 µM peptide, normalized to no inhibitor, read-out: DYRK1A-ΔC Remaining Activity at 10 µM
[7] = 100 µM compound, 1 mM ATP, 60 µM peptide, normalized to no inhibitor

remaining activity at 0.1 µM [1, 4]: 89.2 ± 9.5%
remaining activity at 1 µM [1, 5]: 84.1 ± 9.1%
remaining activity at 10 µM [1, 6]: 95.6 ± 8.1%
remaining activity at 100 µM [1, 7]: 88.7 ± 8.2%
Effect on DYRK1A-ΔC activity (in words) ([1]; 1 mM ATP): No effect
SMILES: Oc1cc(O)c2c(c1)O[C@H](c1ccc(O)c(O)c1)[C@H](O)C2 [EC, epicatechin]

remaining activity at 0.1 µM ([2]; 0.1 µM compound, 1 mM ATP, 60 µM peptide, native DYRK1A): 69.9 ± 3.9%
remaining activity at 1 µM ([2]; 1 µM compound, 1 mM ATP, 60 µM peptide, native DYRK1A): 12.5 ± 2.4%
remaining activity at 10 µM ([2]; 10 µM compound, 200 µM ATP, up to 60 min at 37 °C, read-out: DYRK1A Remaining Activity with 200 µM ATP): 9.4 ± 1.4%
remaining activity at 10 µM ([2]; 10 µM compound, 400 µM ATP, up to 60 min at 37 °C, read-out: DYRK1A Remaining Activity with 400 µM ATP): 7 ± 1.1%
remaining activity at 10 µM ([2]; 10 µM compound, 800 µM ATP, up to 60 min at 37 °C, read-out: DYRK1A Remaining Activity with 800 µM ATP): 5.4 ± 0.9%
remaining activity at 10 µM ([2]; 10 µM compound, 1 mM ATP, 60 µM peptide, native DYRK1A, read-out: DYRK1A Remaining Activity at 10 µM): 4.6 ± 0.9%
remaining activity at 100 µM ([2]; 100 µM compound, 1 mM ATP, 60 µM peptide, native DYRK1A): 2.3 ± 0.5%
Mode of inhibition of DYRK1A against ATP ([2]; DYRK1A-ΔC and DYRK1A, 10 µM compound, ATP 200–800 µM): noncompetitive inhibitor
remaining activity at 0.1 µM [1, 4]: 78.1 ± 3.6%
remaining activity at 1 µM [1, 5]: 27.1 ± 7.3%
remaining activity at 10 µM ([1]; 10 µM compound, 200 µM ATP, up to 60 min at 37 °C, read-out: DYRK1A-ΔC Remaining Activity With 200 µM ATP): 8 ± 0.8%
remaining activity at 10 µM ([1]; 10 µM compound, 400 µM ATP, up to 60 min at 37 °C, read-out: DYRK1A-ΔC Remaining Activity with 400 µM ATP): 6.5 ± 0.9%
remaining activity at 10 µM ([1]; 10 µM compound, 800 µM ATP, up to 60 min at 37 °C, read-out: DYRK1A-ΔC Remaining Activity with 800 µM ATP): 4 ± 0.5%
remaining activity at 10 µM [1, 6]: 11.8 ± 4.2%
remaining activity at 100 µM [1, 7]: 7.6 ± 2.3%
SMILES: O=C(O[C@@H]1Cc2c(O)cc(O)cc2O[C@@H]1c1ccc(O)c(O)c1)c1cc(O)c(O)c(O)c1 [ECG, epicatechin gallate]

SMILES: Oc1cc(O)c2c(c1)O[C@H](c1cc(O)c(O)c(O)c1)[C@H](O)C2 [EGC, epigallocatechin]
remaining activity at 0.1 µM [1, 4]: 99.5 ± 3.2%
remaining activity at 1 µM [1, 5]: 93.6 ± 2.6%
remaining activity at 10 µM [1, 6]: 80.6 ± 11.4%
remaining activity at 100 µM [1, 7]: 81.4 ± 12.8%
Effect on DYRK1A-ΔC activity (in words) ([1]; 1 mM ATP): No effect

SMILES: O=C(O[C@@H]1Cc2c(O)cc(O)cc2O[C@@H]1c1cc(O)c(O)c(O)c1)c1cc(O)c(O)c(O)c1 [EGCG, epigallocatechin-3-gallate]
Crossing of the blood-brain barrier (in words) ([3]; WT and TgBACDyrk1A mice, FontUp D2, two days, from Kp): had crossed the BBB
concentration at 4 h ([3]; TgBACDyrk1A, brain, 50 mg/Kg, TgDyrk1A mice, FontUp D2 oral gavage, n = 5, p < 0.07): 50 nM
Kp at 4 h ([3]; TgBACDyrk1A, 50 mg/Kg, TgDyrk1A mice, FontUp D2 oral gavage): 3.6 ± 0.82
concentration at 4 h ([3]; TgBACDyrk1A, plasma, 50 mg/Kg, TgDyrk1A mice, FontUp D2 oral gavage, n = 5): 36 ± 11 nM
concentration at 4 h ([3]; brain, 50 mg/Kg, WT mice, FontUp D2 oral gavage, n = 5): 25 ± 7 nM
Kp at 4 h ([3]; 50 mg/Kg, WT mice, FontUp D2 oral gavage): 1.2 ± 0.33
concentration at 4 h ([3]; plasma, 50 mg/Kg, WT mice, FontUp D2 oral gavage, n = 5): 65 ± 23 nM
concentration at 4 h ([3]; plasma, WT mice, FontUp high dose D3 (75 mg/Kg) oral gavage, last dose 4 h before sacrifice): 104 ± 11.2 nM
concentration at 4 h ([3]; plasma, WT mice, FontUp intermediate dose D2 (50 mg/Kg) oral gavage, last dose 4 h before sacrifice): 63 ± 10.8 nM
concentration at 4 h ([3]; plasma, WT mice, FontUp low dose D1 (25 mg/Kg) oral gavage, last dose 4 h before sacrifice): 28 ± 0.0003 nM
Mode of inhibition of DYRK1A (DYRK1A; against both substrates): non-competitive inhibitor
IC50 (DYRK1A; read-out: IC50 to inhibit DYRK1A activity): 0.33 µM
remaining activity at 0.1 µM [1]: 71.3 ± 4.6%
remaining activity at 1 µM [1]: 16.3 ± 2.3%
remaining activity at 10 µM ([1]; read-out: DYRK1A-ΔC Remaining Activity at 10 µM): 6.4 ± 1.1%
remaining activity at 100 µM [1]: 3.5 ± 0.8%
